Test results published in PMC9867837 (Cancer letters, 2022).
Like-named read-outs stand apart in the source and are kept apart here.

Assays:
[1] = test system: MDA-MB-231 cells; assay: Annexin V/propidium iodide staining with flow cytometry; assay type: cell-based, human; conditions: 3 μM H182 for 3 h
Protocol: For apoptosis analysis, annexin V/propidium iodide (PI) staining was performed. Details are presented in Supplementary Information, “Methods”. […]
software and Prism GraphPad software (San Diego, CA), using the one-site model. Control experiments were carried out by titration H182 into buffer, buffer into Stat3, and buffer into buffer. The three controls were used as a composite for the ITC experiment to subtract the heat of dilution and background noise from […]
1.2.11. Wound healing assay for migration
Studies were performed as previously reported [1 -3]. Briefly, cells were cultured in 6-well plates, and the monolayer of cells was scratched with a p10 pipet tip. Subsequently, fresh medium containing inhibitors or DMSO (control) was added, and then immediately, cells were imaged with a Canon Powershot A640 digital camera under a phase contrast with the Zeiss Axiovert 200 inverted microscope at 10X magnification and noted as the zero time-point. Following culture for 22 h to allow cells to migrate into the denuded area, the culture was then imaged again at the same field that was marked on the plate.
1.2.12. Annexin V binding/apoptosis and flow cytometric analysis
For apoptosis analysis, annexin V/propidium iodide (PI) staining was performed. […] The annexin V- and/or PI-positive cells were analyzed by FACScan flow cytometer (BD Biosciences) and data was analyzed using FlowJo software. […]

[2] = test system: Stat3-dependent luciferase reporter, pLucTKS3; assay: Stat3-dependent luciferase reporter pLucTKS3 in NIH3T3/v-Src; assay type: cell-based, mouse; conditions: 1–3 μM H182 for 1 h
Protocol: These studies were performed as previously reported using the v-Src-transformed NIH3T3/v-Src fibroblasts. Details are presented in Supplementary Information, “Methods”.
We next evaluated the effects of the azetidine compound, H182 on Stat3 transcriptional activity. We used mouse fibroblasts transformed by the viral Src oncoprotein (NIH3T3/vSrc) that harbor constitutive Stat3 activation, which were transiently transfected with the Stat3-dependent luciferase reporter, pLucTKS3 [25, 30]. Transfected cells were treated with H182 and the luciferase activity was assayed in the cytosolic extract preparations of equal total protein [12, 13, 30]. […]
In another case, the nuclear extract was pre-incubated with the radiolabeled probe for 30 min at 30 °C prior to incubation with increasing concentration of H182 at room temperature for 30 min and subjecting to EMSA analysis. Bands corresponding to Stats DNA- binding activities were scanned and quantified using ImageJ and plotted as a percentage of control (vehicle) against the concentration of the inhibitor, from which the IC50 values were derived . […]
These studies were performed as previously reported using the v-Src -transformed NIH3T3/v-Src fibroblasts [1 -5] . […] Luciferase activity was normalized to total protein concentration of cell lysate, which was determined by Bradford assay (Bio-Rad, Hercules, CA) . […]

[3] = target: T1, glucocorticoid receptor (GR) (Homo sapiens, UniProt P04150); assay: CEREP SafetyScreen44, glucocorticoid receptor; assay type: binding
T1 construct: Eurofins-CEREP (SafetyScreen44 panel)

[4] = target: T2, Stat3:Stat3 DNA-binding activity (Mus musculus, UniProt P42227); assay: EMSA of Stat3:Stat3 DNA-binding activity in nuclear extracts; assay type: biochemical; conditions: for Stat3:Stat3 % of Con, pre-formed Stat3:DNA complex: extract pre-incubated with hSIE probe 30 min
T2 construct: endogenous in cells; host or cells: NIH3T3/v-Src fibroblasts; EGF-stimulated NIH3T3/hEGFR fibroblasts (nuclear extracts)
Protocol: Details are presented in Supplementary Information, “Methods”. […]
min, prior to incubation with the radiolabeled probe for 30 min at 30 °C and subjecting to EMSA analysis.
In another case, the nuclear extract was pre-incubated with the radiolabeled probe for 30 min at 30 °C prior to incubation with increasing concentration of H182 at room temperature for 30 min and subjecting to EMSA analysis. Bands corresponding to Stats DNA- binding activities were scanned and quantified using ImageJ and plotted as a percentage of control (vehicle) against the concentration of the inhibitor, from which the IC50 values were derived .

[5] = 2 μM H182, incubation time 3 min
[6] = 2 μM H182, incubation time 10 min
[7] = 2 μM H182, incubation time 30 min
[8] = 2 μM H182, incubation time 60 min

T2 sequence (P42227 2-770 limits assumed): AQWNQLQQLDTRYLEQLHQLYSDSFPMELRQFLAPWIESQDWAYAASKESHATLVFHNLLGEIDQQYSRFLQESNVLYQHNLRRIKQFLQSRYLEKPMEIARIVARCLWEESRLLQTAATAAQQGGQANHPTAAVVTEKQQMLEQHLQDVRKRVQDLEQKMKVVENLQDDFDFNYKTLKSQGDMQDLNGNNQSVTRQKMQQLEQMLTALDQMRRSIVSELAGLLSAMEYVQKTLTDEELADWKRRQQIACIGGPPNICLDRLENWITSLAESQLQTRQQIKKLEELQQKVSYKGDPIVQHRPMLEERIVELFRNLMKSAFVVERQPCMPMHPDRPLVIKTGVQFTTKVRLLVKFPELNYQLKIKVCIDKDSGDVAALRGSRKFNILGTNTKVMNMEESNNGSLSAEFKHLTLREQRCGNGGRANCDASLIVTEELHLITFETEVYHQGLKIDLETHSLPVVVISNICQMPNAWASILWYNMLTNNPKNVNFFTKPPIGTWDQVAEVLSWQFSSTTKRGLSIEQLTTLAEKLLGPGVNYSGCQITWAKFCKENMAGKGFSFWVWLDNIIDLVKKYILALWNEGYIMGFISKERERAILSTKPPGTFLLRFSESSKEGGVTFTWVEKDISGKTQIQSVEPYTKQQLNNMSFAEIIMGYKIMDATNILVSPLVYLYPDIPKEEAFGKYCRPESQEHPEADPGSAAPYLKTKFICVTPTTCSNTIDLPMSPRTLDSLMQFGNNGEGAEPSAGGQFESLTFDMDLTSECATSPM
T1 sequence (P04150 whole entry): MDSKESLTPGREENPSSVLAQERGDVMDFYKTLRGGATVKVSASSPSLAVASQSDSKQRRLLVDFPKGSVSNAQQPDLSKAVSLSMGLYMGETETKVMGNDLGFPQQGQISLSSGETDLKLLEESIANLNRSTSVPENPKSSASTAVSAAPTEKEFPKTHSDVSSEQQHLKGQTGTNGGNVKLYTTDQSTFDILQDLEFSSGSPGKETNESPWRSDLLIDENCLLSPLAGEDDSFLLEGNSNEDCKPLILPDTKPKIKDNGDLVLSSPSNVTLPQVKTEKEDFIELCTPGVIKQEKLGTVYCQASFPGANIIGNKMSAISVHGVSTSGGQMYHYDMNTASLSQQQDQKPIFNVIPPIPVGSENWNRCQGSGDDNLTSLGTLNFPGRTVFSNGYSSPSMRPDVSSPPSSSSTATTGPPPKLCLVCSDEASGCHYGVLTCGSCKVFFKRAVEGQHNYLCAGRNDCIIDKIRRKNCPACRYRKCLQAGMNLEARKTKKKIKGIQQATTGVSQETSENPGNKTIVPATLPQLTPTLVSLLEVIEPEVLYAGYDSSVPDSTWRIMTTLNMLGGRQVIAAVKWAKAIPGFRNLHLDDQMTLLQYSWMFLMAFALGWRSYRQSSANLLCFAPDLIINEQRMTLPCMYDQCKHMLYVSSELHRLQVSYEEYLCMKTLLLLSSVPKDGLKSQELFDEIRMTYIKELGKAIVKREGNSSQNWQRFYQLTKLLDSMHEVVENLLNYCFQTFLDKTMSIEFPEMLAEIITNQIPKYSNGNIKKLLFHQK

For `O=C([C@H]1CCN1S(=O)(=O)c1c(F)c(F)c(F)c(F)c1F)N(Cc1ccc(C2CCCCC2)cn1)c1ccc2c(=O)[nH]ncc2c1` [Compound H182], the “Annexin V/PI double-positive staining” value [1] was “roughly 12%”, the “Effect on Stat3-driven luciferase reporter expression (pLucTKS3)” value [2] was “dose-dependent inhibition” and the inhibition at 10 µM ([3]; 10 μM H182) was > 80%. The IC50 ([3]; SafetyScreen44 follow-up dose-response) was 110 nM, the “Stat3:Stat3 Intensity (% of Con)” value ([4]; 2 μM H182, incubation time 0 min) was 100 % of Con and the “Stat3:Stat3 Intensity (% of Con)” value [4, 5] was 84 % of Con. The inhibition at 2 µM [4, 5] was 16%, the “Stat3:Stat3 Intensity (% of Con)” value [4, 6] was 65 % of Con and the inhibition at 2 µM [4, 6] was 35%. The “Stat3:Stat3 Intensity (% of Con)” value [4, 7] was 14 % of Con, the inhibition at 2 µM [4, 7] was 86% and the “Stat3:Stat3 Intensity (% of Con)” value [4, 8] was 0.1 % of Con. For the same molecule, the inhibition at 2 µM [4, 8] was 99.9%, the IC50 ([4]; EMSA, NIH3T3/v-Src nuclear extracts, 30-min incubation at room temperature before hSIE probe, read-out: Stat3:Stat3 IC50) was 660 ± 100 nM and the IC50 ([4]; EMSA, incubation time 10 min before hSIE probe, read-out: Stat3:Stat3 IC50) was 1470 nM. The IC50 ([4]; EMSA, incubation time 60 min before hSIE probe, read-out: Stat3:Stat3 IC50) was 380 nM, the IC50 ([4]; Fig. 1C, extracts of EGF-stimulated NIH3T3/hEGFR, hSIE probe, 30 min, read-out: IC50 Stat3:Stat3) was 700 nM and the “Stat3:Stat3 % of Con, pre-formed Stat3:DNA complex” value (shortened to “Stat3:Stat3 % of Con”) ([4]; then 1 μM H182 30 min) was 101 % of Con. For the same molecule, the “Stat3:Stat3 % of Con” value ([4]; then 3 μM H182 30 min) was 101 % of Con, the “Stat3:Stat3 % of Con” value ([4]; then 10 μM H182 30 min) was 100 % of Con and the “Stat3:Stat3 % of Con” value ([4]; then 30 μM H182 30 min) was 98 % of Con. The “Stat3:Stat3 % of Con” value ([4]; then 100 μM H182 30 min) was 86 % of Con, the IC50 ([4]; range over the named compounds and incubation times, read-out: IC50 Stat3 DNA-binding activity in vitro (summary range)) was 380 to 980 nM and the “Inhibition of the pre-formed Stat3:DNA complex” value ([4]; up to 100 μM H182) was “unable to inhibit the pre-formed Stat3:DNA complex”.
